The conditions of this series: pH 7.4.

Experimental findings from patent US20260216349A1, “STABILIZED BIOPOLYMER COMPOSITION, THEIR MANUFACTURE AND USE” (BASE SE, priority 2023, published 2026) are described below.

Protocol: A 10% (m/m) aqueous solution of the test substances (butronics as well as reference materials Kolliphor EL and HS15) is prepared in phosphate buffer pH 7.4. For each test substance and reference three 5 ml brown glass ampoules with screw caps are filled with 5 g of the prepared aqueous solution.
The respective API (as for example Fenofibrate/Itraconazole/Nilotinib) to be analyzed is then added (about 30 mg-500 mg per 5 g of 10% test substance solution, enough that the added powder doesn't dissolve anymore) in order to obtain a supersaturated solution.
After stirring for 72 h at room temperature, each sample is filtered through a 0.22 μm PVDF filter and the concentration of the respective API in the filtrate is quantified by HPLC.
The average of the 3 replicates per API is calculated and the obtained concentrations are put in relation to Kolliphor EL, which is set to 100%.

With “POE sorbitan monooleate [Polysorbate 80]”, the “Solubilization of small molecules (mean value in %)” value is on record as 96%.
